Test results taken from patent US12202835B2, “Substituted aromatic ring-linked dioxinoquinazolines and dioxinoquinolines as kinase inhibitors” (BEIJING SCITECH-MQ PHARMACEUTICALS LIMITED, priority 2018, dated 2025).

Columns and labels:
MER kinase = MER kinase (Homo sapiens (Human), UniProt Q12866); experiment: Assay of small molecular compounds for inhibiting the activity of MER kinase (LANCE TR-FRET); type: biochemical
Method in brief: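 MER kinase preincubated 5 min at RT with compound (11 points, 0.042-2500 nM final), then ULight-poly GT and ATP added (4× stocks 200 nM and 20 μM) for 60 min at RT, 1% DMSO. Phosphorylation detected by LANCE TR-FRET; IC50 from % inhibition versus controls.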

VEGFR-2 kinase = VEGFR-2 kinase (Homo sapiens (Human), UniProt P35968); experiment: Assay of small molecular compounds for inhibiting the activity of VEGFR-2 kinase (LANCE TR-FRET); type: biochemical; details: read-out: VEGFR2 IC50
Method in brief: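 LANCE TR-FRET with human VEGFR-2 (2× stock 0.5 nM) preincubated 30 min with compound (final 2500 to 0.042 nM, 11-point 3-fold), then ULight-JAK-1 (Tyr1023) peptide/ATP added (4× stocks 200 nM/40 μM). Reaction 60 min room temperature, 4% DMSO; IC50 from inhibition-rate curve.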

Ba/F3-AXL cells = experiment: Assay for inhibiting the proliferation of Ba/F3-AXL cells (CCK-8); type: cell-based; details: 72 hours of incubation, medium with 100 ng/mL hGas6, CCK-8
Description: The values were then imported into Graphpad Prism 5 software for curve fitting, and IC50 was calculated.

MER kinase, sequence (Q12866 21-999): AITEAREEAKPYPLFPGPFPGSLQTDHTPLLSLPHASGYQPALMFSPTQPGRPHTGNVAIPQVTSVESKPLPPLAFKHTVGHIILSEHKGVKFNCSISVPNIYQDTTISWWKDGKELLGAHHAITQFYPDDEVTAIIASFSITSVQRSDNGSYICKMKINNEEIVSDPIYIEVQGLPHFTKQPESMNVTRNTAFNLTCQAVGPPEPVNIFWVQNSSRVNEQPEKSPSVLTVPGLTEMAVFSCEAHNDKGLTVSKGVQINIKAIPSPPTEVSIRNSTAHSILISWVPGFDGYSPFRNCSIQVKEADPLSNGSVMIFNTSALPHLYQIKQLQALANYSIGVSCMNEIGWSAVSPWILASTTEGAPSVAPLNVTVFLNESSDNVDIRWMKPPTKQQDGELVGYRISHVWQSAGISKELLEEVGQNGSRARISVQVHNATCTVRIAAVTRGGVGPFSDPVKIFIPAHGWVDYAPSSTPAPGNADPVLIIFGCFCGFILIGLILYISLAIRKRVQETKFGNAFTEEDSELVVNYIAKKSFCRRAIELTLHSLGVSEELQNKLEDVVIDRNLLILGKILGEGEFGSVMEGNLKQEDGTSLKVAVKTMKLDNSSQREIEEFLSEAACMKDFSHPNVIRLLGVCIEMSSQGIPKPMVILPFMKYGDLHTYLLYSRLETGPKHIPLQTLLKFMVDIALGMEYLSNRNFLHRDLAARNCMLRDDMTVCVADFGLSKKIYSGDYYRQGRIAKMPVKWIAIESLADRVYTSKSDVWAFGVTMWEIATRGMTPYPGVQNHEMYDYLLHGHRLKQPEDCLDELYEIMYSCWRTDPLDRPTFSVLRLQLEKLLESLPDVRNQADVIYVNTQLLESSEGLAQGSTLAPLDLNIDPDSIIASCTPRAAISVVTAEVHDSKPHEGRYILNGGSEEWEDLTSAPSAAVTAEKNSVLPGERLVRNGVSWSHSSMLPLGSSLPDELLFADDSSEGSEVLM
VEGFR-2 kinase, sequence (P35968 20-1356): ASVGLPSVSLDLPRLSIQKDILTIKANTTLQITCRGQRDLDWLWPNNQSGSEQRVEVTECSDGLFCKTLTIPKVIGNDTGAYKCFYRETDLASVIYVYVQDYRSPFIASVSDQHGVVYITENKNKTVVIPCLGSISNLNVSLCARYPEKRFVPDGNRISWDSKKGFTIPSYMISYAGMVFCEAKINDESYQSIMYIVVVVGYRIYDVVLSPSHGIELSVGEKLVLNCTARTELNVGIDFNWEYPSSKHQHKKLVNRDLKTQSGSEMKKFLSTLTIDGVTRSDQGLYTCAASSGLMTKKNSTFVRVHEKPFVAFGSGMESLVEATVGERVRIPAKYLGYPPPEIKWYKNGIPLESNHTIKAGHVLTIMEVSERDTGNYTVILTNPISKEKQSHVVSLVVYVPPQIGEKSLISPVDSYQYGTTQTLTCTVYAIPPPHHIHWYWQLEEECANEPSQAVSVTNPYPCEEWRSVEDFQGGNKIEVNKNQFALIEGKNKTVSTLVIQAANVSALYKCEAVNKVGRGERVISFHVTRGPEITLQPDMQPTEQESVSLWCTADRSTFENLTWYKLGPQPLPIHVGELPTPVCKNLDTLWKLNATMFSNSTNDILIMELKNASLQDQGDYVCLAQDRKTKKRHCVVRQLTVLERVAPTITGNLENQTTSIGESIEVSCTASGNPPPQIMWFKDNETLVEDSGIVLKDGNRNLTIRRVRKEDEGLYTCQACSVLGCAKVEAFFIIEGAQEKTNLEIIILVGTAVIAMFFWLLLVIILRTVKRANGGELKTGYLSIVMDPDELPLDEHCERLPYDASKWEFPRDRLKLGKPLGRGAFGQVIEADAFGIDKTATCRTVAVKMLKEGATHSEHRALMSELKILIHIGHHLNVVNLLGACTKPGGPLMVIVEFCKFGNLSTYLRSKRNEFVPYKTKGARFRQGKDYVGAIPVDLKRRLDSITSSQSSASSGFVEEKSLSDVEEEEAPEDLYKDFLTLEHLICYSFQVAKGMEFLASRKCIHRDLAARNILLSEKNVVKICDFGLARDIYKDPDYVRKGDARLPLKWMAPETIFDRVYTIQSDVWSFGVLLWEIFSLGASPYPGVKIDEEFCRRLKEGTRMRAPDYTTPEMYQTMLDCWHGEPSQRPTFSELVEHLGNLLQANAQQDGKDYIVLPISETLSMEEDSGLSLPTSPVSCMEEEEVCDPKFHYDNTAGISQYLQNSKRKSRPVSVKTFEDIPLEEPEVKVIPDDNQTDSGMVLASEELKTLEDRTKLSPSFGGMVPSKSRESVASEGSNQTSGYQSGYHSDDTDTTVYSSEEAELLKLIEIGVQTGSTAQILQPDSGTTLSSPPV

Row | SMILES | IC50 (MER kinase) [nM] | IC50 (VEGFR-2 kinase) [nM] | IC50 (Ba/F3-AXL cells) [nM]
1 | CCOc1ccn(-c2ccc(F)cc2)c(=O)c1C(=O)Nc1ccc(Oc2ccnc3cc(OCCCC#N)c4c(c23)OCCO4)cc1Cl [Example 134, N-(2-chloro-4-((5-(3-cyanopropoxy)-2,3-dihydro-[1,4]dioxino[2,3-f]quinolin-10-yl)oxy)phenyl)-1-(4-fluorophenyl)-4-ethoxy-2-oxo-1,2-dihydropyridine-3-carboxamide] | ≤ 50 | 50 to 500 | < 50
2 | CCOc1ccn(-c2ccc(F)cc2)c(=O)c1C(=O)Nc1ccc(Oc2ccnc3cc(OCC(C)(C)O)c4c(c23)OCCO4)cc1Cl [Example 142, N-(2-chloro-4-((5-(2-hydroxy-2-methylpropoxy)-2,3-dihydro-[1,4]dioxino[2,3-f]quinolin-10-yl)oxy)phenyl)-1-(4-fluorophenyl)-4-ethoxy-2-oxo-1,2-dihydropyridine-3-carboxamide] | ≤ 50 | 50 to 500 | < 50
